Patent publication US6355799B1, “Substituted benzene compounds, process for their preparation, and herbicidal and defoliant compositions containing them” (ISK Americas Incorporated, priority 1997, dated 2002)

Columns and labels:
Assay type in all cases: in vivo
[1] = system: upland rice (Oryza sp., var. Tebonnet, RICE); test: Pre-emerge test, crop safety; conditions: pre-emerge, 14 days after application, rating scale 0-100
Procedure, shortened: (§1)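 Applied at 15–1000 g ai/ha from acetone in 187 l/ha spray volume. Post-emergence applications included 0.25% v/v non-ionic surfactant and reached plants sown 8–21 days before. Pre-emergence applications were incorporated by surface watering. Efficacy or crop damage was rated on a 0–100 scale after 14 days.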

[2] = system: field corn (Zea mays L., var. Dekalb 535, CORN); test: Pre-emerge test, crop safety; conditions: pre-emerge, 14 days after application, rating scale 0-100
Procedure, shortened: as §1

[3] = system: velvetleaf (Abutilon theophrasti, ABUTH); test: Post-emerge test, greenhouse herbicide activity screening; conditions: post-emerge, 14 days after application, rating scale 0-100
Procedure, shortened: (§2)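 Visual ratings on a 0-100 scale (0 no damage, 100 all plants dead) were taken at 14 days after treatment. Rates of 15-1000 g ai/ha in acetone, 187 l/ha, were sprayed onto soil one day after planting (pre-emerge) or onto 2-3 leaf plants with 0.25% v/v surfactant (post-emerge).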

[4] = system: redroot pigweed (Amaranthus retroflexus, AMARE); test: as above; conditions: post-emerge, 14 days after application
Procedure, shortened: as §2

[5] = system: johnsongrass (Sorghum halepense, SORHA); test: as above; conditions: post-emerge, 14 days after application, rating scale 0-100
Procedure, shortened: as §2

[6] = system: green foxtail (Setaria viridis, SETVI); test: as above; conditions: post-emerge, 14 days after application, rating scale 0-100
Procedure, shortened: as §2

[7] = system: lambsquarters (Chenopodium album, CHEAL); test: as above; conditions: post-emerge, 14 days after application, rating scale 0-100
Procedure, shortened: as §2

[8] = system: sicklepod (Cassia obtusifolia, CASOB); test: as above; conditions: post-emerge, 14 days after application, rating scale 0-100
Procedure, shortened: as §2

[9] = system: common ragweed (Ambrosia artemisizfolia L., AMBEL); test: as above; conditions: post-emerge, 14 days after application, rating scale 0-100
Procedure, shortened: as §2

[10] = system: ivyleaf morningglory (Ipomoea hederacea, IPOHE); test: as above; conditions: post-emerge, 14 days after application, rating scale 0-100
Procedure, shortened: as §2

[11] = system: large crabgrass (Digitaria sanguinalis, DIGSA); test: as above; conditions: post-emerge, 14 days after application, rating scale 0-100
Procedure, shortened: as §2

[12] = system: barnyardgrass (Echinochloa crus-galli, ECHCG); test: as above; conditions: post-emerge, 14 days after application, rating scale 0-100
Procedure, shortened: as §2

[13] = system: velvetleaf (Abutilon theophrasti, ABUTH); test: Pre-emerge test, greenhouse herbicide activity screening; conditions: pre-emerge, 14 days after application, rating scale 0-100
Procedure, shortened: (§3)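 Plants grown in 10 cm pots of sandy loam mix received acetone-dissolved compounds through a moving flat-fan nozzle. Doses ranged from 15 to 1000 g ai/ha. Pre-emerge pots were seeded one day earlier, post-emerge pots 8–21 days earlier. Fourteen days on, each pot was graded 0–100 for damage.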

[14] = system: johnsongrass (Sorghum halepense, SORHA); test: as above; conditions: pre-emerge, 14 days after application, rating scale 0-100
Procedure, shortened: as §3

[15] = system: green foxtail (Setaria viridis, SETVI); test: as above; conditions: pre-emerge, 14 days after application, rating scale 0-100
Procedure, shortened: as §3

[16] = system: lambsquarters (Chenopodium album, CHEAL); test: as above; conditions: pre-emerge, 14 days after application, rating scale 0-100
Procedure, shortened: as §3

[17] = system: sicklepod (Cassia obtusifolia, CASOB); test: as above; conditions: pre-emerge, 14 days after application, rating scale 0-100
Procedure, shortened: as §3

[18] = system: ivyleaf morningglory (Ipomoea hederacea, IPOHE); test: as above; conditions: pre-emerge, 14 days after application, rating scale 0-100
Procedure, shortened: as §3

[19] = system: large crabgrass (Digitaria sanguinalis, DIGSA); test: as above; conditions: pre-emerge, 14 days after application, rating scale 0-100
Procedure, shortened: as §3

[20] = system: barnyardgrass (Echinochloa crus-galli, ECHCG); test: as above; conditions: pre-emerge, 14 days after application, rating scale 0-100
Procedure, shortened: as §3

[21] = system: upland rice (Oryza sp., var. Tebonnet, RICE); test: Post-emerge test, crop safety; conditions: post-emerge, 14 days after application, rating scale 0-100
Procedure, shortened: (§4)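 Each test used a mechanized track sprayer delivering 187 l/ha of acetone solution at 15–1000 g ai/ha. Post-emerge foliage at 2–3 leaves was treated with added 0.25% v/v non-ionic surfactant and bottom-watered only. Injury was assessed on day 14, where 100 means total kill.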

[22] = system: field corn (Zea mays L., var. Dekalb 535, CORN); test: Post-emerge test, crop safety; conditions: post-emerge, 14 days after application, rating scale 0-100
Procedure, shortened: as §4

[23] = system: redroot pigweed (Amaranthus retroflexus, AMARE); test: Pre-emerge test, greenhouse herbicide activity screening; conditions: pre-emerge, 14 days after application, rating scale 0-100
Procedure, shortened: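 Rating: 0–100 visual injury, 14 DAA. Application: acetone, 187 l/ha, 15–1000 g ai/ha, flat-fan track sprayer with nozzle 40–45 cm above soil or canopy. Post-emerge runs used 0.25% v/v surfactant on 2–3 leaf plants.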

SMILES: CCOC(=O)C(Cl)Cc1c(OC)c(Cl)cc(F)c1-c1nn(C)c(C(F)(F)F)c1Cl (stereo not shown) [14-56]
- phytotoxicity rating RICE ([1]; 63 g ai/ha): 10
- phytotoxicity rating RICE ([1]; 250 g ai/ha): 10
- phytotoxicity rating CORN ([2]; 63 g ai/ha): 0
- phytotoxicity rating CORN ([2]; 250 g ai/ha): 0
- Post-emerge Herbicidal Activity ABUTH (phytotoxicity rating) ([3]; 63 g ai/ha): 70
- Post-emerge Herbicidal Activity ABUTH (phytotoxicity rating) ([3]; 250 g ai/ha): 100
- Post-emerge Herbicidal Activity AMARE (phytotoxicity rating) ([4]; 63 g ai/ha, rating scale 0-100 (0 no damage, 100 complete death)): 100
- Post-emerge Herbicidal Activity AMARE (phytotoxicity rating) ([4]; 250 g ai/ha, rating scale 0-100): 100
- Post-emerge Herbicidal Activity SORHA (phytotoxicity rating) ([5]; 63 g ai/ha): 30
- Post-emerge Herbicidal Activity SORHA (phytotoxicity rating) ([5]; 250 g ai/ha): 70
- Post-emerge Herbicidal Activity SETVI (phytotoxicity rating) ([6]; 63 g ai/ha): 30
- Post-emerge Herbicidal Activity SETVI (phytotoxicity rating) ([6]; 250 g ai/ha): 70
- Post-emerge Herbicidal Activity CHEAL (phytotoxicity rating) ([7]; 63 g ai/ha): 99
- Post-emerge Herbicidal Activity CHEAL (phytotoxicity rating) ([7]; 250 g ai/ha): 100
- Post-emerge Herbicidal Activity CASOB (phytotoxicity rating) ([8]; 63 g ai/ha): 30
- Post-emerge Herbicidal Activity CASOB (phytotoxicity rating) ([8]; 250 g ai/ha): 40
- Post-emerge Herbicidal Activity AMBEL (phytotoxicity rating) ([9]; 63 g ai/ha): 90
- Post-emerge Herbicidal Activity AMBEL (phytotoxicity rating) ([9]; 250 g ai/ha): 80
- Post-emerge Herbicidal Activity IPOHE (phytotoxicity rating) ([10]; 63 g ai/ha): 100
- Post-emerge Herbicidal Activity IPOHE (phytotoxicity rating) ([10]; 250 g ai/ha): 100
- Post-emerge Herbicidal Activity DIGSA (phytotoxicity rating) ([11]; 63 g ai/ha): 10
- Post-emerge Herbicidal Activity DIGSA (phytotoxicity rating) ([11]; 250 g ai/ha): 50
- Post-emerge Herbicidal Activity ECHCG (phytotoxicity rating) ([12]; 63 g ai/ha): 20
- Post-emerge Herbicidal Activity ECHCG (phytotoxicity rating) ([12]; 250 g ai/ha): 80
- phytotoxicity rating ABUTH ([13]; 63 g ai/ha): 30
- phytotoxicity rating ABUTH ([13]; 250 g ai/ha): 60
- phytotoxicity rating SORHA ([14]; 63 g ai/ha): 0
- phytotoxicity rating SORHA ([14]; 250 g ai/ha): 30
- phytotoxicity rating SETVI ([15]; 63 g ai/ha): 20
- phytotoxicity rating SETVI ([15]; 250 g ai/ha): 70
- phytotoxicity rating CHEAL ([16]; 63 g ai/ha): 80
- phytotoxicity rating CHEAL ([16]; 250 g ai/ha): 100
- phytotoxicity rating CASOB ([17]; 63 g ai/ha): 0
- phytotoxicity rating CASOB ([17]; 250 g ai/ha): 10
- phytotoxicity rating IPOHE ([18]; 63 g ai/ha): 0
- phytotoxicity rating IPOHE ([18]; 250 g ai/ha): 0
- phytotoxicity rating DIGSA ([19]; 63 g ai/ha): 30
- phytotoxicity rating DIGSA ([19]; 250 g ai/ha): 40
- phytotoxicity rating ECHCG ([20]; 63 g ai/ha): 0
- phytotoxicity rating ECHCG ([20]; 250 g ai/ha): 0
- Post-emerge Herbicidal Activity RICE (crop damage rating) ([21]; 63 g ai/ha): 0
- Post-emerge Herbicidal Activity RICE (crop damage rating) ([21]; 250 g ai/ha): 25
- Post-emerge Herbicidal Activity CORN (crop damage rating) ([22]; 63 g ai/ha): 10
- Post-emerge Herbicidal Activity CORN (crop damage rating) ([22]; 250 g ai/ha): 30
- phytotoxicity rating AMARE ([23]; 63 g ai/ha): 100
- phytotoxicity rating AMARE ([23]; 250 g ai/ha): 100
